# Several values for one entry are separate records, joined by “and”; a condition that tells them apart may be missing. Equal entries are not always repeated. Toxic doses and inconclusive results are not listed.
# Tested on: L1210 leukemia ip in BDF1 mice, survival T/C
# Assay: NCI In Vivo Anticancer Drug Screen. Data for tumor model L1210 Leukemia (intraperitoneal) in B6D2F1 (BDF1) mice
# Conditions: higher = longer survival
# Summary of the method: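 Transplanted-tumor mice were given test agent; controls received vehicle only. Survival readings from the two groups were divided (treated over control).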
# [1] = endpoint: mean survival time, dose: 100.0 mg/kg/injection, schedule: Q01DX001 (ip), vehicle: saline
# [2] = endpoint: mean survival time, dose: 200.0 mg/kg/injection, schedule: Q01DX001 (ip), vehicle: saline
# [3] = endpoint: mean survival time, dose: 400.0 mg/kg/injection, schedule: Q01DX001 (ip), vehicle: saline
# [4] = endpoint: mean survival time, dose: 50.0 mg/kg/injection, schedule: Q01DX001 (ip), vehicle: carboxymethylcellulose (CMC)
# [5] = endpoint: mean survival time, dose: 100.0 mg/kg/injection, schedule: Q01DX001 (ip), vehicle: carboxymethylcellulose (CMC)
# [6] = endpoint: mean survival time, dose: 200.0 mg/kg/injection, schedule: Q01DX001 (ip), vehicle: carboxymethylcellulose (CMC)
# [7] = endpoint: mean survival time, dose: 400.0 mg/kg/injection, schedule: Q01DX001 (ip), vehicle: carboxymethylcellulose (CMC)
smiles,measurement,setting,value
CC(=O)c1ccc(NC(=O)c2ccc(C(=O)Nc3ccc(C(C)=O)cc3)cc2)cc1,T/C,[1],100 % of control
same,T/C,[2],96 % of control
same,T/C,[3],102 % of control
O=C(c1ccccc1)C(c1ccccc1)(c1ccccc1)c1ccccc1,T/C,[4],90 % of control
same,T/C,[5],95 % of control
same,T/C,"endpoint: mean survival time, dose: 100.0 mg/kg/injection, schedule: Q04DX002 (ip), vehicle: Klucel (hydroxypropylcellulose) (HPC)",97 % of control
same,T/C,[6],108 % of control
same,T/C,"endpoint: mean survival time, dose: 200.0 mg/kg/injection, schedule: Q04DX002 (ip), vehicle: Klucel (hydroxypropylcellulose) (HPC)",94 % of control
same,T/C,[7],123 % of control
same,T/C,"endpoint: mean survival time, dose: 400.0 mg/kg/injection, schedule: Q04DX002 (ip), vehicle: Klucel (hydroxypropylcellulose) (HPC)",97 % of control
C=CCc1cc2c(C)cc(=O)oc2c(C)c1OC(C)=O,T/C,"endpoint: mean survival time, dose: 100.0 mg/kg/injection, schedule: Q01DX009 (ip), vehicle: gum acacia",100 % of control
same,T/C,"endpoint: mean survival time, dose: 100.0 mg/kg/injection, schedule: Q04DX003 (ip), vehicle: gum acacia",98 % of control
same,T/C,"endpoint: mean survival time, dose: 200.0 mg/kg/injection, schedule: Q01DX009 (ip), vehicle: gum acacia",96 % of control
same,T/C,"endpoint: mean survival time, dose: 200.0 mg/kg/injection, schedule: Q04DX003 (ip), vehicle: gum acacia",103 % of control
same,T/C,"endpoint: mean survival time, dose: 400.0 mg/kg/injection, schedule: Q01DX009 (ip), vehicle: gum acacia",91 % of control
same,T/C,"endpoint: mean survival time, dose: 400.0 mg/kg/injection, schedule: Q04DX003 (ip), vehicle: gum acacia",90 % of control
CCC(C=NCCBr)(CCC(=O)OC)CCC(=O)OC,T/C,"endpoint: mean survival time, dose: 100.0 mg/kg/injection, schedule: Q04DX002 (ip), vehicle: saline",102 % of control
same,T/C,"endpoint: mean survival time, dose: 200.0 mg/kg/injection, schedule: Q04DX002 (ip), vehicle: saline",102 % of control
same,T/C,"endpoint: mean survival time, dose: 400.0 mg/kg/injection, schedule: Q04DX002 (ip), vehicle: saline",112 % of control
Cc1ccnc(NC(c2ccccc2)c2ccc3cccnc3c2O)c1 (stereo not drawn),T/C,[1],103 % of control
same,T/C,[2],95 % of control
same,T/C,[3],86 % of control
COc1cc(/C=C2\CCOC2=O)c([N+](=O)[O-])cc1OC,T/C,[4],96 % of control
same,T/C,[5],94 % of control
same,T/C,[6],94 % of control
same,T/C,[7],90 % of control
O=C1NC(=O)C(c2ccccc2)C1=O (stereo not drawn),T/C,"endpoint: mean survival time, dose: 50.0 mg/kg/injection, schedule: Q01DX Z (ip), vehicle: other",105 % of control
same,T/C,"endpoint: mean survival time, dose: 100.0 mg/kg/injection, schedule: Q01DX Z (ip), vehicle: other",96 % of control
same,T/C,"endpoint: mean survival time, dose: 200.0 mg/kg/injection, schedule: Q01DX Z (ip), vehicle: other",91 % of control
same,T/C,"endpoint: mean survival time, dose: 400.0 mg/kg/injection, schedule: Q01DX Z (ip), vehicle: other",89 % of control
O=c1nc(NC(=S)Nc2ccn(C3OC(CO)C(O)C3O)c(=O)n2)ccn1C1OC(CO)C(O)C1O (stereo not drawn),T/C,"endpoint: mean survival time, dose: 50.0 mg/kg/injection, schedule: Q01DX001 (ip), vehicle: other",104 % of control
same,T/C,"endpoint: mean survival time, dose: 50.0 mg/kg/injection, schedule: Q01DX001 (ip), vehicle: water",103 % of control and 106 % of control and 114 % of control
same,T/C,"endpoint: mean survival time, dose: 100.0 mg/kg/injection, schedule: Q01DX001 (ip), vehicle: other",110 % of control
same,T/C,"endpoint: mean survival time, dose: 100.0 mg/kg/injection, schedule: Q01DX001 (ip), vehicle: water",106 % of control
same,T/C,"endpoint: mean survival time, dose: 100.0 mg/kg/injection, schedule: Q01DX005 (ip), vehicle: saline",168 % of control and 188 % of control
same,T/C,"endpoint: mean survival time, dose: 200.0 mg/kg/injection, schedule: Q01DX001 (ip), vehicle: other",109 % of control and 116 % of control
same,T/C,[2],158 % of control
same,T/C,"endpoint: mean survival time, dose: 200.0 mg/kg/injection, schedule: Q01DX005 (ip), vehicle: saline",206 % of control and 218 % of control
same,T/C,"endpoint: mean survival time, dose: 400.0 mg/kg/injection, schedule: Q01DX001 (ip), vehicle: other",193 % of control
same,T/C,[3],217 % of control
same,T/C,"endpoint: mean survival time, dose: 400.0 mg/kg/injection, schedule: Q01DX001 (ip), vehicle: water",171 % of control and 215 % of control
same,T/C,"endpoint: mean survival time, dose: 600.0 mg/kg/injection, schedule: Q01DX001 (ip), vehicle: other",163 % of control
same,T/C,"endpoint: mean survival time, dose: 800.0 mg/kg/injection, schedule: Q01DX001 (ip), vehicle: saline",452 % of control
same,T/C,"endpoint: mean survival time, dose: 800.0 mg/kg/injection, schedule: Q01DX001 (ip), vehicle: water",196 % of control and 177 % of control and 361 % of control
same,T/C,"endpoint: mean survival time, dose: 1600.0 mg/kg/injection, schedule: Q01DX001 (ip), vehicle: water",368 % of control
same,T/C,"endpoint: median survival time, dose: 12.5 mg/kg/injection, schedule: Q03HX024 (ip), vehicle: saline",180 % of control
same,T/C,"endpoint: median survival time, dose: 25.0 mg/kg/injection, schedule: Q03HX024 (ip), vehicle: saline",180 % of control
same,T/C,"endpoint: median survival time, dose: 50.0 mg/kg/injection, schedule: Q03HX024 (ip), vehicle: saline",295 % of control
same,T/C,"endpoint: median survival time, dose: 100.0 mg/kg/injection, schedule: Q01DX009 (ip), vehicle: saline",190 % of control
same,T/C,"endpoint: median survival time, dose: 200.0 mg/kg/injection, schedule: Q01DX001 (oral), vehicle: saline",104 % of control
same,T/C,"endpoint: median survival time, dose: 200.0 mg/kg/injection, schedule: Q01DX009 (ip), vehicle: saline",152 % of control
same,T/C,"endpoint: median survival time, dose: 200.0 mg/kg/injection, schedule: Q04DX003 (ip), vehicle: saline",195 % of control
same,T/C,"endpoint: median survival time, dose: 400.0 mg/kg/injection, schedule: Q01DX001 (ip), vehicle: saline",185 % of control
same,T/C,"endpoint: median survival time, dose: 400.0 mg/kg/injection, schedule: Q01DX001 (oral), vehicle: saline",104 % of control
same,T/C,"endpoint: median survival time, dose: 400.0 mg/kg/injection, schedule: Q04DX003 (ip), vehicle: saline",233 % of control
same,T/C,"endpoint: median survival time, dose: 800.0 mg/kg/injection, schedule: Q01DX001 (ip), vehicle: saline",233 % of control
same,T/C,"endpoint: median survival time, dose: 800.0 mg/kg/injection, schedule: Q01DX001 (oral), vehicle: saline",100 % of control
same,T/C,"endpoint: median survival time, dose: 800.0 mg/kg/injection, schedule: Q04DX003 (ip), vehicle: saline",342 % of control
same,T/C,"endpoint: median survival time, dose: 1600.0 mg/kg/injection, schedule: Q01DX001 (ip), vehicle: saline",204 % of control
CNCC(O)c1ccc(O)cc1 (stereo not drawn),T/C,"endpoint: mean survival time, dose: 25.0 mg/kg/injection, schedule: Q01DX009 (ip), vehicle: saline",96 % of control
same,T/C,"endpoint: mean survival time, dose: 25.0 mg/kg/injection, schedule: Q04DX003 (ip), vehicle: saline",111 % of control
same,T/C,"endpoint: mean survival time, dose: 50.0 mg/kg/injection, schedule: Q01DX009 (ip), vehicle: saline",105 % of control
same,T/C,"endpoint: mean survival time, dose: 50.0 mg/kg/injection, schedule: Q04DX003 (ip), vehicle: saline",101 % of control
same,T/C,"endpoint: mean survival time, dose: 100.0 mg/kg/injection, schedule: Q01DX009 (ip), vehicle: saline",98 % of control
same,T/C,"endpoint: mean survival time, dose: 100.0 mg/kg/injection, schedule: Q04DX003 (ip), vehicle: saline",90 % of control and 101 % of control
same,T/C,"endpoint: mean survival time, dose: 200.0 mg/kg/injection, schedule: Q01DX009 (ip), vehicle: saline",98 % of control
same,T/C,"endpoint: mean survival time, dose: 200.0 mg/kg/injection, schedule: Q04DX003 (ip), vehicle: saline",88 % of control and 104 % of control
same,T/C,"endpoint: mean survival time, dose: 400.0 mg/kg/injection, schedule: Q01DX009 (ip), vehicle: saline",100 % of control
same,T/C,"endpoint: mean survival time, dose: 400.0 mg/kg/injection, schedule: Q04DX003 (ip), vehicle: saline",98 % of control and 120 % of control
O=C(Nc1ccccc1)Nc1ccc(Cl)c(Cl)c1,T/C,"endpoint: mean survival time, dose: 100.0 mg/kg/injection, schedule: Q01DX001 (ip), vehicle: saline with Tween-80",95 % of control
same,T/C,"endpoint: mean survival time, dose: 100.0 mg/kg/injection, schedule: Q01DX009 (ip), vehicle: Klucel (hydroxypropylcellulose) (HPC)",101 % of control
same,T/C,"endpoint: mean survival time, dose: 100.0 mg/kg/injection, schedule: Q04DX003 (ip), vehicle: Klucel (hydroxypropylcellulose) (HPC)",107 % of control
same,T/C,"endpoint: mean survival time, dose: 200.0 mg/kg/injection, schedule: Q01DX001 (ip), vehicle: saline with Tween-80",97 % of control
same,T/C,"endpoint: mean survival time, dose: 200.0 mg/kg/injection, schedule: Q01DX009 (ip), vehicle: Klucel (hydroxypropylcellulose) (HPC)",94 % of control
same,T/C,"endpoint: mean survival time, dose: 200.0 mg/kg/injection, schedule: Q04DX003 (ip), vehicle: Klucel (hydroxypropylcellulose) (HPC)",89 % of control
same,T/C,"endpoint: mean survival time, dose: 400.0 mg/kg/injection, schedule: Q01DX001 (ip), vehicle: saline with Tween-80",90 % of control
same,T/C,"endpoint: mean survival time, dose: 400.0 mg/kg/injection, schedule: Q01DX009 (ip), vehicle: Klucel (hydroxypropylcellulose) (HPC)",95 % of control
same,T/C,"endpoint: mean survival time, dose: 400.0 mg/kg/injection, schedule: Q04DX003 (ip), vehicle: Klucel (hydroxypropylcellulose) (HPC)",86 % of control
O=C(Nc1ccc(N=C(Nc2ccccc2)c2ccccc2)cc1)c1ccc(C(=O)Nc2ccc(N=C(Nc3ccccc3)c3ccccc3)cc2)cc1,T/C,"endpoint: mean survival time, dose: 15.0 mg/kg/injection, schedule: Q01DX Z (ip), vehicle: carboxymethylcellulose (CMC)",93 % of control
same,T/C,"endpoint: mean survival time, dose: 30.0 mg/kg/injection, schedule: Q01DX Z (ip), vehicle: carboxymethylcellulose (CMC)",93 % of control
same,T/C,"endpoint: mean survival time, dose: 60.0 mg/kg/injection, schedule: Q01DX Z (ip), vehicle: carboxymethylcellulose (CMC)",97 % of control
same,T/C,"endpoint: mean survival time, dose: 120.0 mg/kg/injection, schedule: Q01DX Z (ip), vehicle: carboxymethylcellulose (CMC)",95 % of control
C=CCC1(/C(=C\CC)CCC)C(=O)NC(=O)NC1=O,T/C,"endpoint: mean survival time, dose: 75.0 mg/kg/injection, schedule: Q01DX001 (ip), vehicle: saline",96 % of control

# From PubChem BioAssay AID248 (DTP/NCI, 2004)
